According to US20230202973A1, “BARNESIN A, DERIVATIVES AND USES THEREOF” (Leibniz-Institut Für Naturstoff-Forschung Und …, priority 2018, published 2023):
Like-named read-outs stand apart in the source and are kept apart here. Square brackets hold non-standard residues; d marks the D form. Peptide text beside a SMILES is read from it. * marks the point of attachment. Sta = CC(C)C[C@H](N)[C@@H](O)CC(=O)O; Isovaleryl = CC(C)CC(=O)*

Experiments:
papain [1] = target: T1, papain (Carica papaya, UniProt P00784); assay: Protease assay with azocasein: papain; type: biochemical; details: azocasein substrate, pH 7.2, n.i. = no inhibition; for IC50: read-out: Papain, inhibitory activity as IC50 value
T1 construct: purchased Sigma-Aldrich P4762
T1 sequence (P00784 134-345): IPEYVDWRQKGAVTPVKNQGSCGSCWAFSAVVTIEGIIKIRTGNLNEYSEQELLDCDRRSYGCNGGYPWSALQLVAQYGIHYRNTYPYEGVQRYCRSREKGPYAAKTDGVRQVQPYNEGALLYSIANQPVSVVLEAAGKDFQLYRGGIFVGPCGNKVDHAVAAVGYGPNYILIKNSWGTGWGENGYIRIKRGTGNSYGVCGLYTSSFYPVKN
Protocol: (§1) Protease Assays with azocasein: Protease inhibition assays against the proteases papain, ficin, trypsin, pepsin and thermolysin were performed according to the protocol of Garcia-Carreño (loc. cit.) in a reaction buffer containing 25 mM TRIS-HCl, 0.15 M NaCl, pH 7.2 (or pH 3.5 for aspartic protease). The total assay volume was 47 μL buffer with 2 μL of the protease as well as 1 μL of suitable inhibitor or corresponding inhibitor solvent (100% MeoH or water). Final concentration of proteases was as follows: 2 mg/mL for papain (Sigma-Aldrich, P4762), 600 μg/mL for ficin (Sigma-Aldrich, F6008), 80 μg/mL for trypsin (Thermo Fisher, 23266), 60 mg/mL for pepsin (Sigma-Aldrich P6887)) and 2 μg/mL for thermolysin (Sigma-Aldrich, P1512).
(§2) Inhibitors were dissolved in 100% MeOH or water and added to the assay (1 μL); final concentration: 2% MeOH. Samples of control inhibitors were prepared as follows: (1) serine protease (trypsin): PMFS (2 mM) and soybean trypsin inhibitor (240 μM) (Sigma-Aldrich, T1021), (2) cysteine proteases (papain and ficin): iodacetamide (2 mM), (3) […] (pepsin): pepstatin A (1 μg/mL) (Sigma-Aldrich, P4265), (4) metalloprotease (thermolysin): EDTA (10 mM). […] Negative controls were performed with protease alone (without inhibitor) and MeOH at a final concentration of 2% (reference for activity of 100%). Extract absorbance controls were performed using inhibitor (1 μL in MeOH) without protease. Blanks were performed using 49 μL buffer and 1 μL MeOH.
(§3) Samples were incubated with buffer and suitable inhibitor (or without for negative controls) for 1 h at r.t. and the reaction was started afterward by adding 50 μl of […] substrate and incubated for 1 h at 37° C. After stopping the reaction with trichloracetic acid (TCA), the separation of the precipitate was accomplished by centrifugation at 6500 g for 5 min. The hydrolyzed substrate supernatant was incubated in an equal volume of 0.5 N NaOH for 5 min and the absorbance was measured at 440 nm. OD values of the protease control without inhibitor were used as reference for a 100% activity.
(§4) The log IC50 values were determined using the standard curves analyzing tool with four parameter logistic equation of SigmaPlot12 with technical triplicates. Propagation of error was calculated using the standard error and log IC50 values where the equation of error propagation is defined as Δy=0.43Δx/x.

ficin = assay: Protease assay with azocasein: ficin; type: biochemical; details: azocasein substrate, pH 7.2, n.i. = no inhibition; for IC50: read-out: Ficin, inhibitory activity as IC50 value
Protocol: as §1, §2, §3, §4

Cathepsin B [2] = target: T2, Cathepsin B (Homo sapiens, UniProt P07858); assay: Cathepsin B inhibition assay (Z-Arg-Arg-AMC); type: biochemical; details: Z-Arg-Arg-AMC substrate, pH 6.0, n.i. = no inhibition; for IC50: read-out: Cathepsin B, inhibitory activity as IC50 value
Protocol: Cathepsin B inhibition assay. Cathepsin B inhibition assay was determined according to Hiwasa et al. (loc. cit.) with minor changes. Cathepsin B was purchased from Sigma Aldrich (C0150) and stored in 50 mM sodium acetate, 1 mM EDTA, pH 5 (adjusted with acetic acid). Cathepsin B was activated by preincubation at 40° C. for 10 min in assay buffer (0.1 M sodium acetate 1.3 mM EDTA, pH 6.0 adjusted with acetic acid, 2 μM DTT, 2.6 mM cysteine and 0.05% Triton X100). […] Final concentration of cathepsin B was 0.1 mg/ml. […] After stopping the reaction with 85 μL buffer containing 100 mM sodium monochlor acetate, 30 mM sodium acetate, 70 mM acetic acid, the hydrolyzed substrate was detected at an excitation wavelength of 380 nm and a fluorescence wavelength of 450 nm, using a fluorophotometer. 1 μL of 1.5 mM leupeptin was used as enzyme inhibition control.

trypsin [3] = target: T3, trypsin (Bos taurus, UniProt P00760); assay: Protease assay with azocasein: trypsin; type: biochemical; details: azocasein substrate, pH 7.2; n.i. = no inhibition
T3 construct: purchased Thermo Fisher 23266
T3 sequence (P00760 24-246): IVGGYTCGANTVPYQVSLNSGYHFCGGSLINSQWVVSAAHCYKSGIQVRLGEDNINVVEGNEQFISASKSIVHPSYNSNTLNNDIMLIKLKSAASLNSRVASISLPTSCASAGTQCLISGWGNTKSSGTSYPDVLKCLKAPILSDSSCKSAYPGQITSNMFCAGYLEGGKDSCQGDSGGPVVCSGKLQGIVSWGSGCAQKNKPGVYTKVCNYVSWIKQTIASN
Protocol: as §1, §2, §3, §4

pepsin = target: T4, pepsin (Sus scrofa, UniProt P00791); assay: Protease assay with azocasein: pepsin; type: biochemical; details: azocasein substrate, pH 3.5; n.i. = no inhibition
T4 construct: purchased Sigma-Aldrich P6887
Protocol: as §1, §2, §3, §4

thermolysin = target: T5, thermolysin (Bacillus thermoproteolyticus, UniProt P00800); assay: Protease assay with azocasein: thermolysin; type: biochemical; details: azocasein substrate, pH 7.2; n.i. = no inhibition
T5 construct: purchased Sigma-Aldrich P1512
Protocol: as §1, §2, §3, §4

[4] = system: thermolysin (Sigma-Aldrich, P1512); details: 10 mM EDTA
Protocol: (§5) Protease Assays with azocasein: Protease inhibition assays against the proteases papain, ficin, trypsin, pepsin and thermolysin were performed according to the protocol of Garcia-Carreño (loc. cit.) in a reaction buffer containing 25 mM TRIS-HCl, 0.15 M NaCl, pH 7.2 (or pH 3.5 for aspartic protease). The total assay volume was 47 μL buffer with 2 μL of the protease as well as 1 μL of suitable inhibitor or corresponding inhibitor solvent (100% MeoH or water). […]
(§6) Inhibitors were dissolved in 100% MeOH or water and added to the assay (1 μL); final concentration: 2% MeOH. […] Extract absorbance controls were performed using inhibitor (1 μL in MeOH) without protease. […]
(§7) Samples were incubated with buffer and suitable inhibitor (or without for negative controls) for 1 h at r.t. and the reaction was started afterward by adding 50 μl of […] substrate and incubated for 1 h at 37° C. […] The hydrolyzed substrate supernatant was incubated in an equal volume of 0.5 N NaOH for 5 min and the absorbance was measured at 440 nm. […]
as §4

papain [5] = target: T1, papain; details: reported in literature for known compounds; read-out: Papain, reported inhibitory activity as IC50 value; cited from earlier work
trypsin [6] = details: reported in literature for known compounds; read-out: Trypsin, reported inhibitory activity as IC50 value; cited from earlier work
[7] = system: trypsin (Thermo Fisher, 23266); assay: Protease assay with azocasein, trypsin; type: biochemical; details: 2 mM PMFS
Protocol: as §5, §6, §7, §4

Cathepsin B [8] = target: T2, Cathepsin B; details: reported in literature; cells printed in nM; read-out: Cathepsin B, reported inhibitory activity as IC50 value; cited from earlier work
Cathepsin B [9] = target: T2, Cathepsin B; assay: Activity test against cathepsin B (initial screen, Table 5); type: biochemical; parameters: dose or concentration left out as unconfirmed
Protocol: (§8) Activity Tests Against Cathepsin B, Cathepsin L and Rhodesain.
(§9) The determination of the activity of the inhibitors against hCatL and RD was performed in fluorescence-based assays in accordance with the assays described in Giroud et al., ChemMedChem 12 (2017), 257-270 and Schirmeister, Bioorganic & Medicinal Chemistry Letters 27 (2017) 45-50. The biological activities against hCatL were determined using Cbz-Phe-Arg-AMC as substrate, which releases AMC (7-amino-4-methylcoumarin) after amide bond cleavage by the enzyme. The proteolytic activity of the enzyme can be monitored spectrophotometrically by the increase of fluorescence intensity by release of AMC (emission at 460 nm) upon hydrolysis. An initial screen at an inhibitor concentration […] was performed to identify ligands with an inhibition of hCatL and RD higher than 80%.

hCatL = hCatL (Homo sapiens, UniProt P07711); assay: Fluorescence-based activity test against cathepsin L (Cbz-Phe-Arg-AMC); type: biochemical; parameters: dose or concentration left out as unconfirmed
Protocol: as §8, §9

Rhodesain = Rhodesain (Trypanosoma brucei rhodesiense, UniProt Q95PM0); assay: Fluorescence-based activity test against rhodesain; type: biochemical; details: initial screen at an inhibitor concentration of 20 mM; ni = no inhibition
Protocol: as §8
Rhodesain is a central cysteine protease from Trypanosoma brucei rhodesiense and a potential drug target against human African trypanosomiasis (sleeping sickness).
as §9

[10] = target: T6, papain (Sigma-Aldrich, P4762) (Carica papaya, UniProt P00784); assay: Protease assay with azocasein, papain; type: biochemical; details: 2 mM iodacetamide; read-out: inhibition of enzyme activity (control inhibitor), papain
T6 sequence (P00784 134-345): T1 sequence (P00784 134-345)
Protocol: as §5, §6, §7, §4

[11] = system: ficin (Sigma-Aldrich, F6008); assay: Protease assay with azocasein, ficin; type: biochemical; details: 2 mM iodacetamide
Protocol: as §5, §6, §7, §4

[12] = system: pepsin (Sigma-Aldrich P6887); assay: Protease assay with azocasein, pepsin; type: biochemical; details: 1 μg/mL pepstatin A
Protocol: as §5, §6, §7, §4

T5 sequence (P00800 233-548): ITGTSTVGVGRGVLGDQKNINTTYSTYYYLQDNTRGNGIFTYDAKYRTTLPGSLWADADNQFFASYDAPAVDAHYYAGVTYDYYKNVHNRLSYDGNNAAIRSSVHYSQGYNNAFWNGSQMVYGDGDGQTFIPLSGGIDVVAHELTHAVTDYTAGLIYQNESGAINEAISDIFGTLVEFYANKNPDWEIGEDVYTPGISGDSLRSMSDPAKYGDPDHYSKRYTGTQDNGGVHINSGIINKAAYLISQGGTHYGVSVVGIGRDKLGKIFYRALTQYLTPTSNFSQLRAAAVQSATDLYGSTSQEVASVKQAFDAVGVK
T4 sequence (P00791 60-385): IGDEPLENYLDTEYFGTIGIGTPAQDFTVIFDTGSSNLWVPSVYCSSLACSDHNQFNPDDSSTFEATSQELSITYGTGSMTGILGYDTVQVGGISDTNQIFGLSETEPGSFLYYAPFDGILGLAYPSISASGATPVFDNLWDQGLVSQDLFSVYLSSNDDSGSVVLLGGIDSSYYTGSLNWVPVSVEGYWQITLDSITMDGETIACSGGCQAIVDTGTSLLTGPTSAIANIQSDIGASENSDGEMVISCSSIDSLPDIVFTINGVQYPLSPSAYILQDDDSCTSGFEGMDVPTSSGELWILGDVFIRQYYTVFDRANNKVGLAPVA
Sequence of hCatL (P07711 114-333): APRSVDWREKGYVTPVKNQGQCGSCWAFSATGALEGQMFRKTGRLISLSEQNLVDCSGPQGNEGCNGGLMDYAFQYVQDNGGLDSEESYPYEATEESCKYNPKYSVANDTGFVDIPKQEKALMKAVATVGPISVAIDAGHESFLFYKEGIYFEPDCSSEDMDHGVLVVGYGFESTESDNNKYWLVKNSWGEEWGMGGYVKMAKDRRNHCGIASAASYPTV
Sequence of Rhodesain (Q95PM0 entry or part of it): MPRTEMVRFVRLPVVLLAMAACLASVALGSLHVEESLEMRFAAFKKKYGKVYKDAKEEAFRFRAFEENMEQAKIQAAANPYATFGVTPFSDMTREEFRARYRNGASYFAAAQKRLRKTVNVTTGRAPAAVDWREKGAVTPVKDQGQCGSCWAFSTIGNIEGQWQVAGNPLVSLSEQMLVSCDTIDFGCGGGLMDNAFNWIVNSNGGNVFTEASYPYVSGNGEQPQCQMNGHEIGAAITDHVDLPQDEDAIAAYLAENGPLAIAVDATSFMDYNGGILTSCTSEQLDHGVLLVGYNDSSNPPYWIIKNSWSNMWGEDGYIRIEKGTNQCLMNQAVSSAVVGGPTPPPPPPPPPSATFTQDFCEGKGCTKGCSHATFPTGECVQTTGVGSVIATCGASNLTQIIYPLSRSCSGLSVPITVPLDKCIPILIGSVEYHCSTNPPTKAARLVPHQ

CCCCCCCC(=O)N[C@@H](Cc1ccc(O)cc1)C(=O)N[C@H](/C=C/C(=O)O)CCCNC(=N)N [17,18-Dihydrobarnesin (4), 17,18-Dihydrobarnesin]
IC50 (papain [1]): 4.78 µM | IC50 (ficin): 1.16 µM | IC50 (Cathepsin B [2]): 0.0876 µM | Trypsin, inhibitory activity as IC50 value (trypsin [3]): n.i. | Pepsin, inhibitory activity as IC50 value (pepsin): n.i. | Thermolysin, inhibitory activity as IC50 value (thermolysin): n.i.

CCCCCCCC(=O)N[C@@H](Cc1ccc(O)cc1)C(=O)N[C@@H](CCCNC(=N)N)CCC(=O)O [(R), 2,3,17,18-Tetrahydrobarnesin A, reference compound]
Papain, inhibitory activity as IC50 value (papain [1]): n.i. | Ficin, inhibitory activity as IC50 value (ficin): n.i. | Cathepsin B, inhibitory activity as IC50 value (Cathepsin B [2]): n.i. | Trypsin, inhibitory activity as IC50 value (trypsin [3]): n.i. | Pepsin, inhibitory activity as IC50 value (pepsin): n.i. | Thermolysin, inhibitory activity as IC50 value (thermolysin): n.i.

CCCCCCCC(=O)N[C@@H](Cc1ccc(O)cc1)C(=O)N[C@@H](CCCNC(=N)N)CCC(=O)OC [(S), 2,3-17,18-Tetrahydrobarnesin A methyl ester, reference compound]
Papain, inhibitory activity as IC50 value (papain [1]): n.i. | Ficin, inhibitory activity as IC50 value (ficin): n.i. | Cathepsin B, inhibitory activity as IC50 value (Cathepsin B [2]): n.i. | Trypsin, inhibitory activity as IC50 value (trypsin [3]): n.i. | Pepsin, inhibitory activity as IC50 value (pepsin): n.i. | Thermolysin, inhibitory activity as IC50 value (thermolysin): n.i.

CCCCC/C=C/C(=O)N[C@@H](Cc1ccc(O)cc1)C(=O)N[C@H](/C=C/C(=O)O)CCCNC(=N)N [Barnesin A (1), Barnesin A]
IC50 (papain [1]): 16 µM | IC50 (ficin): 3.43 µM | IC50 (Cathepsin B [2]): 0.0917 µM | Trypsin, inhibitory activity as IC50 value (trypsin [3]): n.i. | Pepsin, inhibitory activity as IC50 value (pepsin): n.i. | Thermolysin, inhibitory activity as IC50 value (thermolysin): n.i.

CCCCC/C=C/C(=O)N[C@@H](Cc1ccc(O)cc1)C(=O)N[C@H](/C=C/C(=O)OCC)CCCN=C(N)N [Barnesin A ethyl ester (3), (E)-Oct-2-enoyl-tyrosine-vinylogous arginine ethyl ester]
IC50 (papain [1]): 2.89 µM | IC50 (ficin): 3.43 µM | IC50 (Cathepsin B [2]): 0.024 µM | Trypsin, inhibitory activity as IC50 value (trypsin [3]): n.i. | Pepsin, inhibitory activity as IC50 value (pepsin): n.i. | Thermolysin, inhibitory activity as IC50 value (thermolysin): n.i.

O=C(O)CN(CCN(CC(=O)O)CC(=O)O)CC(=O)O [EDTA]
inhibition of enzyme activity (control inhibitor), thermolysin [4]: > 95%

CC(=O)N[C@@H](CC(C)C)C(=O)N[C@@H](CC(C)C)C(=O)N[C@H](C=O)CCCNC(=N)N [Leupeptin, reference compound]
IC50 (papain [5]): 0.86 µM | IC50 (trypsin [6]): 2.2 µM

O=S(=O)(F)Cc1ccccc1 [PMFS]
inhibition of enzyme activity (control inhibitor), trypsin [7]: > 95%

CC(C)[C@H](NC(=O)c1ccc(O)cc1)C(=O)N[C@H](C(=O)N[C@H](C=O)CCCNC(=N)N)C(C)C [Tokaramide A]
IC50 (Cathepsin B [8]): 62.4 nM

CC(C)CC(=O)N[C@H](Cc1ccc(O)cc1)C(=O)N[C@H](C(=O)N[C@@H](C=O)Cc1ccccc1)C(C)C [YM 51084] (Isovaleryl-[dY]-Val-[dF]-aldehyde)
IC50 (papain [5]): 2.2 µM | IC50 (Cathepsin B [8]): 12 nM

CCCCC/C=C/C(=O)N[C@H](Cc1ccc(O)cc1)C(=O)N[C@H](/C=C/C(=O)O)CCCNC(=N)N [drawing 49]
inhibition (Cathepsin B [9]): 5% | inhibition (hCatL): 7% | Rhodesain (%) inhibition (Rhodesain): ni

NC(=O)CI [iodacetamide]
inhibition at 2000 µM [10]: > 95% | inhibition of enzyme activity (control inhibitor), ficin [11]: > 95%

CC(C)CC(=O)N[C@H](C(=O)N[C@H](C(=O)N[C@@H](CC(C)C)[C@@H](O)CC(=O)N[C@@H](C)C(=O)N[C@@H](CC(C)C)[C@@H](O)CC(=O)O)C(C)C)C(C)C [pepstatin A] (Isovaleryl-VV[Sta]A[Sta]-OH)
inhibition of enzyme activity (control inhibitor), pepsin [12]: > 95%

Cystatin
IC50 (papain [5]): 0.029 µM | IC50 (trypsin [6]): 3.5 µM
